For test [1], the target named is T1, Peroxisome proliferator-activated receptor gamma (Homo sapiens, UniProt P37231).
T1 sequence (P37231 whole entry): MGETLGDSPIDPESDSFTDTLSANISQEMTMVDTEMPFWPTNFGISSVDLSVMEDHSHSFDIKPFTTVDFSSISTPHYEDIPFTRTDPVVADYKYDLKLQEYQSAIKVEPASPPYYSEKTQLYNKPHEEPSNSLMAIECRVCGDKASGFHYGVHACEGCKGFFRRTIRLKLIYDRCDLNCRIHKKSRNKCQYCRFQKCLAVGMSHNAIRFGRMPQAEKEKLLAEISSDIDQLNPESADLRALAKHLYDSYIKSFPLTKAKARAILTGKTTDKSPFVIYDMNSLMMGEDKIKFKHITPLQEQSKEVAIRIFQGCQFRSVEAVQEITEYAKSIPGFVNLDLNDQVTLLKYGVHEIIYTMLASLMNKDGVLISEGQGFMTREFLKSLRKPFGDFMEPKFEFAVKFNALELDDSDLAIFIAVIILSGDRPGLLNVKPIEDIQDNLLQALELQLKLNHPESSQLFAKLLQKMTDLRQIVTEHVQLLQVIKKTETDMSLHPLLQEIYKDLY

For test [2], the target named is T2, Peroxisome proliferator-activated receptor alpha (Homo sapiens) (UniProt Q07869).
T2 sequence (whole entry): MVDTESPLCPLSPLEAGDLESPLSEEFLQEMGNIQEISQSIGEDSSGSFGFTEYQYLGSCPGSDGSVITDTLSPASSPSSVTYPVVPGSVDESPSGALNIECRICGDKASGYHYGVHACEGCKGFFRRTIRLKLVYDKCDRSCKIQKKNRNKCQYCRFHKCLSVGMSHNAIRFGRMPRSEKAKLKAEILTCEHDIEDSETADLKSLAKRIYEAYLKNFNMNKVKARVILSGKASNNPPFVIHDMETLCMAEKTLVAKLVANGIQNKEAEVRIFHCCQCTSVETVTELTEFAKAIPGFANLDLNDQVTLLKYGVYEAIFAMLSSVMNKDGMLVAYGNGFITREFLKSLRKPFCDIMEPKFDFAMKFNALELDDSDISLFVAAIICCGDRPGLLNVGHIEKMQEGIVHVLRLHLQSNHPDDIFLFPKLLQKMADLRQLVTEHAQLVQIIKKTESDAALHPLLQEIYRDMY
Kind of test: Transactivation of human PPARalpha LBD expressed in african green monkey Cos7 cells co-transfected with fused GAL4-DBD at 10 uM after 14 hrs by Dual-Glo Luciferase reporter gene assay. The format is cell-based. The conditions noted are these: COS-7. Background: In a reporter assay the amount or activity of a reporter protein is the signal.

Test [3] deals with T3, Peroxisome proliferator-activated receptor gamma (Homo sapiens) (UniProt P37231).
T3 sequence (whole entry): T1 sequence (P37231 whole entry)
Kind of test: Transactivation of human PPARgamma LBD expressed in african green monkey Cos7 cells co-transfected with fused GAL4-DBD at 10 uM after 14 hrs by Dual-Glo Luciferase reporter gene assay. The class given is cell-based. The conditions noted are these: COS-7.

Test [4] addresses T3, Peroxisome proliferator-activated receptor gamma (Homo sapiens). The test can be described thus: Transactivation of human PPARgamma LBD expressed in african green monkey Cos7 cells co-transfected with fused GAL4-DBD after 14 hrs by Dual-Glo Luciferase reporter gene assay. The conditions noted are these: COS-7.
The target is the same in test [5]. The test can be described thus: Agonist activity at human PPARgamma LBD expressed in african green monkey Cos7 cells co-transfected with fused GAL4-DBD after 14 hrs by Dual-Glo Luciferase reporter gene transactivation assay. The class given is functional, cell-based. The conditions noted are these: COS-7.

The source made the active and inactive calls. No cut-off for these calls is given here.

As a reminder, the EC50 is the midpoint of the concentration-response curve.

The compound `O=C(O)C(Sc1nc(Cl)cc(NCCCc2ccccc2)n1)c1cccc2ccccc12` (stereo not given) came in with an EC50 in test [1] of 8.9 µM. In addition, in test [2], the outcome was inactive.

Take `O=C(O)C(Sc1nc(Cl)cc(NCCc2ccccc2)n1)c1cccc2ccccc12` (stereo not given): the response in test [1] was half-maximal at 10.8 µM (EC50). Further, the result in test [2] was inactive.

In test [1], `CCCCCCC(Sc1nc(Cl)cc(Nc2cccc(C)c2C)n1)C(=O)O` (stereo not given) showed an EC50 of 3.6 µM.

On to `CC(C)CCNc1cc(Cl)nc(SC(C(=O)O)c2cccc3ccccc23)n1` (stereo not given), for which the EC50 in test [1] was determined as 8.9 µM. Moreover, in test [2], the outcome was inactive.

On to `CCCCNc1cc(Cl)nc(SC(C(=O)O)c2cccc3ccccc23)n1` (stereo not given), for which the outcome in test [3], in test [4] and in test [2] was inactive.

For the compound `Cc1cccc(Nc2cc(Cl)nc(SC(C(=O)O)c3ccc(-c4ccccc4)c4ccccc34)n2)c1C` (stereo not given), in test [1], the midpoint of the response, the EC50, lay at 4.5 µM. In test [2], the result was inactive.

Regarding `O=C(O)C(Sc1nc(Cl)cc(Nc2ccc3ccccc3c2)n1)c1cccc2ccccc12` (stereo not given), in test [1], the midpoint of the response, the EC50, lay at 6.9 µM. The outcome in test [2] was inactive.

For the compound `CCc1ccc(CCOc2ccc(CC3SC(=O)NC3=O)cc2)nc1` (stereo not given), the outcome in test [2] was inactive.

The compound `O=C(O)C(Sc1nc(Cl)cc(Nc2ccc(Cl)cc2)n1)c1cccc2ccccc12` (stereo not given) came in with an EC50 in test [1] of 9 µM. Moreover, the result in test [2] was inactive.

For the compound `CC(C)c1ccc(Nc2cc(Cl)nc(SC(C(=O)O)c3cccc4ccccc34)n2)cc1` (stereo not given), the EC50 in test [1] is 7.6 µM. Further, in test [2], the outcome was inactive.

`O=C(O)C(Sc1nc(Cl)cc(Nc2ccc(F)cc2)n1)c1cccc2ccccc12` (stereo not given) had an EC50 in test [1] of 13 µM. Also, the result in test [2] was inactive.

Take `Cc1ccc(Nc2cc(Cl)nc(SC(C(=O)O)c3cccc4ccccc34)n2)cc1C` (stereo not given): the EC50 in test [1] is 7.8 µM. Besides, the result in test [2] was inactive.

Consider `O=C(O)C(Sc1nc(Cl)cc(Nc2ccc3c(c2)CCC3)n1)c1cccc2ccccc12` (stereo not given), for which a half-maximal effect in test [1] (EC50) was put at 6.8 µM. The outcome in test [2] was inactive.

Compound `Cc1cccc(Nc2cc(Cl)nc(SC(C(=O)O)c3cccc4ccccc34)n2)c1C` (stereo not given) had an EC50 in test [1] of 6.2 µM. The outcome in test [2] and in test [5] was inactive.

In test [1], `O=C(O)C(Sc1nc(Cl)cc(Nc2cccc(Cl)c2)n1)c1cccc2ccccc12` (stereo not given) yielded an EC50 of 7.3 µM. Also, the outcome in test [2] was inactive.

(Values after ChEMBL document CHEMBL1156182 (Bioorg Med Chem Lett, 2010).)
